In ChEMBL document CHEMBL1128754, “The SAR of 6-(N-alkyl-N-acyl)-2-propyl-3-[(2-tetrazol-5-yl)biphen-4-yl)methyl]-quinazolinones as balanced affinity antagonists of the human AT1 and AT2 receptors” (Bioorg Med Chem Lett, 1995):
Residue numbers refer to the chain shown, from its start.

Experiments:
[1] = Bioavailability in dog (dose 3.0 mg/kg p.o.); assay type: ADME, organism-based, Canis lupus familiaris; conditions: in vivo, po
[2] = biological target: T1, Angiotensin II receptor (AT-1) type-1 (Rattus norvegicus, UniProt P29089+P25095); assay: Binding affinity against AT1 receptor in rat adrenal tissue; assay type: tissue-based
T1 sequence (P29089 whole entry): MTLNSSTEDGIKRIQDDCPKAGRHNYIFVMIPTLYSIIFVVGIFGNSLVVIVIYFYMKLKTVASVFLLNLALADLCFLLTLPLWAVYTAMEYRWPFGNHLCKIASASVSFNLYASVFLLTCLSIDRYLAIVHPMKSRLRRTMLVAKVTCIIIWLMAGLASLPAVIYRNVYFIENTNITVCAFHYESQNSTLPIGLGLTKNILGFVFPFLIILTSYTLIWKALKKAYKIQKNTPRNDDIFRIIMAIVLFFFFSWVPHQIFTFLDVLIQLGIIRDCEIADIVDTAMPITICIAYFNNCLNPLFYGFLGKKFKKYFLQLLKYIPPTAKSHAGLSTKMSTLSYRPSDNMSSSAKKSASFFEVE
T1 sequence (P25095 whole entry): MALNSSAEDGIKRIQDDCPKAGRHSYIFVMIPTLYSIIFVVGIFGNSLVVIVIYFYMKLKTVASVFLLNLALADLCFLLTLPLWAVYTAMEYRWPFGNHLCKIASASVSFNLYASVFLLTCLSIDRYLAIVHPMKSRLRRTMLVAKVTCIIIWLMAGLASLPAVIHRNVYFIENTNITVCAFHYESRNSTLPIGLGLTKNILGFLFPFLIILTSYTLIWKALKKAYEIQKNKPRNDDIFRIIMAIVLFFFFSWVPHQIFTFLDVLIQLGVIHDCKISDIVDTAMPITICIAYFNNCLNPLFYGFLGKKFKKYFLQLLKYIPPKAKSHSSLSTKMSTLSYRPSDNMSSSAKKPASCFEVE

[3] = biological target: Angiotensin II receptor (Homo sapiens) (UniProt P30556+P50052); assay: Ratio of receptor binding affinity AT2/AT1 in human adrenal tissue in th+e presence of 2 mg/ml bovine serum albumin; assay type: protein assay
[4] = biological target: Angiotensin II receptor (Rattus norvegicus) (UniProt P29089+P25095+P35351); assay: Ratio of receptor binding affinity AT2/AT1 in rat adrenal tissue
[5] = Bioavailability in dog (dose of 1.0 mg/kg i.v.) 0.5 hr; assay type: ADME, organism-based, Canis lupus familiaris; conditions: in vivo, iv
Rattus norvegicus [6] = species on record: Rattus norvegicus; conditions: dose 1 mg/kg; route intravenous
Rattus norvegicus [7] = species on record: Rattus norvegicus; conditions: dose 1 mg/kg; route oral
physchem = conditions: octanol/water
Description: Partition coefficient (logP)

[8] = biological target: T2, Type-1 angiotensin II receptor (Homo sapiens, UniProt P30556); assay: biochemical
T2 sequence (P30556 whole entry): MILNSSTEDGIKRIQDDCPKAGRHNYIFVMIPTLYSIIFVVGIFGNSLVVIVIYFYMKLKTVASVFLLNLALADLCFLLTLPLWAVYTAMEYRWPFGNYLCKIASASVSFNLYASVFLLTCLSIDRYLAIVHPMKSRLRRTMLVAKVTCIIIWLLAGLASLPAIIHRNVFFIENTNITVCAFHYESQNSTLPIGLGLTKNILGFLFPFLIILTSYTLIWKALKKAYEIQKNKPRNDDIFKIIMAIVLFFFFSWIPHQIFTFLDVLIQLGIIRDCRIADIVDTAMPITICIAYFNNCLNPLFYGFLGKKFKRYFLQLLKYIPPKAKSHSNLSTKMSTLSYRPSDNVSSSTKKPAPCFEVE
Description: Binding affinity against AT1 receptor in human adrenal tissue

[9] = biological target: T3, Type-1 angiotensin II receptor (Oryctolagus cuniculus, UniProt P34976); assay: biochemical
T3 sequence (P34976 whole entry): T2 sequence (P30556 whole entry) with I2M, V49A, I254V, I270V, R272H, R311K, T349S, A353V
Description: Binding affinity against AT1 receptor in rabbit aorta

Cn1nnnc1-c1ccccc1-c1ccc(Cn2cnc3ccc(N(Cc4cccnc4)C(=O)c4ccccc4)cc3c2=O)cc1
bioavailability [1]: 56% | IC50 [2]: 0.3 nM | Ratio [3]: 1.3 | Ratio [4]: 2.1 | bioavailability [5]: 84% | Duration (Rattus norvegicus [6]): >3 h | Duration (Rattus norvegicus [7]): >3 h | logP (physchem): 3.4 | IC50 [8]: 0.9 nM | IC50 [9]: 1.7 nM
